Experimental data reported in patent publication US8791132B2, “Compounds and methods for treatment of hypertension” (Medivation Technologies, Inc., priority 2011, dated 2014).
pKi: −log10 of the molar value. “And” between values parts separate entries of the source, which are not always exact repeats. Equal entries are not always repeated. Where two headings read alike, the source gives them in different places.

What was measured:
[1] = target: T1, human recombinant adrenergic α2B receptor (Homo sapiens, UniProt P18089); assay: Radioligand binding, adrenergic α2B ([3H]Rauwolscine); details: for Percentage inhibition of ligand binding, Adrenergic α2B (0.03 μM): compound at 0.03 μM; for pKi: read-out: Ki α2B; for inhibition at 0.1 µM: read-out: Percentage inhibition of ligand binding, Adrenergic α2B (0.1 μM), compound at 0.1 μM
T1 construct: expressed in transfected cells; host or cells: CHO-K1
T1 sequence (P18089 1-450): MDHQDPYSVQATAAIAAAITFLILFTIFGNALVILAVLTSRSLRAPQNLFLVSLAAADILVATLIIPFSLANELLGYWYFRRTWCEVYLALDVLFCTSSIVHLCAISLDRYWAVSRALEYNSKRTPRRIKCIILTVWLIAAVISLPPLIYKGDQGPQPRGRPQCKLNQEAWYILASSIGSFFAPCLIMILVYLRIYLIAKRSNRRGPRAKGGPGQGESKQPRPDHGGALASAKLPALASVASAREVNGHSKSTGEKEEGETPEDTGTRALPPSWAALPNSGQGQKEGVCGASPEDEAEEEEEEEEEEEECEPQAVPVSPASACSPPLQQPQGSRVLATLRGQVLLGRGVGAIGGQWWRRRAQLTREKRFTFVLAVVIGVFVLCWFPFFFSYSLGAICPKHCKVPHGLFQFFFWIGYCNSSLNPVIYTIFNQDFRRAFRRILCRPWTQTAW
Outline: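 Assay used CHO-K1-expressed human α2B receptor in Tris-HCl pH 7.4 buffer with MgCl2, EDTA and BSA; 60 min incubation at 25 °C.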

[2] = target: T2, human recombinant adrenergic α2A receptor (Homo sapiens, UniProt P08913); assay: Radioligand binding, adrenergic α2A ([3H]MK-912); details: for Percentage inhibition of ligand binding, Adrenergic α2A (0.1 μM): compound at 0.1 μM
T2 construct: expressed in transfected cells; host or cells: insect Sf9 cells
T2 sequence (P08913 1-465): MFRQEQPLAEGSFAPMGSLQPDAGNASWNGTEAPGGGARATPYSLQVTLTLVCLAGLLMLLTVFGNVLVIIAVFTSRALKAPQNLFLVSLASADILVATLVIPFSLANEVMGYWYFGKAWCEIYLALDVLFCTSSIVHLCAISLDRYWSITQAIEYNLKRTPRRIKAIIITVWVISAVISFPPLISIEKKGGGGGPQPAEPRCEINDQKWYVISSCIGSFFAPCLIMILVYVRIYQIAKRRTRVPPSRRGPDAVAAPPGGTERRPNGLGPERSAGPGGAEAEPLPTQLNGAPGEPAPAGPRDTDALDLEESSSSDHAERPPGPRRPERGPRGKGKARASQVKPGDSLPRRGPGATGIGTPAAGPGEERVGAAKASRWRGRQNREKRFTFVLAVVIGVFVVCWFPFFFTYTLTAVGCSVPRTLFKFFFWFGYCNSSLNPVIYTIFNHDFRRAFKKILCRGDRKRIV
Outline: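 Receptor expressed in Sf9 cells, in 50 mM Tris-HCl pH 7.4, 12.5 mM MgCl2, 2 mM EDTA; compounds incubated with 1 nM [3H]MK-912 for 60 min at 25 °C.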

[3] = target: T3, rat adrenergic α1B receptor (Rattus norvegicus, UniProt P15823); assay: Radioligand binding, adrenergic α1B ([3H]Prazosin); details: for Percentage inhibition of ligand binding, Adrenergic α1B (0.1 μM): compound at 0.1 μM
T3 construct: rat adrenergic α1B receptor obtained from Wistar Rat liver; from tissue; host or cells: Wistar rat liver
T3 sequence (P15823 1-515): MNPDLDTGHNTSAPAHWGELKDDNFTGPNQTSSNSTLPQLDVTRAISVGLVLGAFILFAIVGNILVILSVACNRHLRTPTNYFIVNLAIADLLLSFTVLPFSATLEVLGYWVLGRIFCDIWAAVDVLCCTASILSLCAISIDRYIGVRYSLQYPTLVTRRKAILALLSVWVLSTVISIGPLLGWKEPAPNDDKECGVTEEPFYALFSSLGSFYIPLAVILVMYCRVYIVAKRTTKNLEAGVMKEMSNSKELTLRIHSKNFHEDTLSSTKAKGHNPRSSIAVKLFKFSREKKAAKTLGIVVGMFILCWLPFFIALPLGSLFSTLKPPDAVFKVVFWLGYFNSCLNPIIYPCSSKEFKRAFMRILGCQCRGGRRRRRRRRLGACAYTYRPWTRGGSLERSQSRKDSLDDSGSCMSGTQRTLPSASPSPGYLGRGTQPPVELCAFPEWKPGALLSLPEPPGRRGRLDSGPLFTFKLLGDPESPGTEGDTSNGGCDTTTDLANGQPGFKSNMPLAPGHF
Outline: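 Specific binding, taken as total minus that remaining with 10 μM phentolamine, is measured after filtration and counting. Rat liver receptor preparation and 0.25 nM [3H]prazosin are incubated with compound in 50 mM Tris-HCl (pH 7.4, 0.5 mM EDTA) at 25° C for 60 min. Activity is reported as percent inhibition.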

[4] = [3H]Rauwolscine, repeat datapoints each shown
[5] = [3H]MK-912, repeat datapoints each shown
[6] = [3H]Prazosin, repeat datapoints each shown
[7] = read-out: Percentage inhibition of ligand binding, Adrenergic α2B (0.03 μM), compound at 0.03 μM, [3H]Rauwolscine, repeat datapoints each shown
[8] = read-out: Percentage inhibition of ligand binding, Adrenergic α1B (0.1 μM), compound at 0.1 μM, [3H]Prazosin, repeat datapoints each shown
[9] = read-out: Percentage inhibition of ligand binding, Adrenergic α2A (0.1 μM), compound at 0.1 μM, [3H]MK-912, repeat datapoints each shown
[10] = 0.03 μM compound, read-out: Percentage inhibition of ligand binding, Adrenergic α2B
[11] = 0.1 μM compound, read-out: Percentage inhibition of ligand binding, Adrenergic α2A
[12] = 0.1 μM compound, read-out: Percentage inhibition of ligand binding, Adrenergic α1B

| Percentage inhibition of ligand binding, Adrenergic α2A (0.1 μM) [2, 5] | inhibition at 0.03 µM [1, 7] | inhibition at 0.1 µM [3, 8] | inhibition at 0.1 µM [2, 9] | Compound | further results |
| --- | --- | --- | --- | --- | --- |
| −2% |  |  |  | Cc1ccc2c(c1)c1c(n2CC(O)c2ccc(C(N)=O)cc2)CCN(C)C1 (stereo not shown) [compound 139, 4-[2-(2,8-dimethyl-1,2,3,4-tetrahydro-pyrido[4,3-b]indol-5-yl)-1-hydroxy-ethyl]-benzamide] | Percentage inhibition of ligand binding, Adrenergic α2B (0.03 μM) [1, 4]: 59% and 83%; pKi [1]: 8.09; inhibition at 0.1 µM [1, 4]: 87%; pKi [2]: 6.41; Percentage inhibition of ligand binding, Adrenergic α1B (0.1 μM) [3, 6]: 72%; inhibition at 0.03 µM ([3]; read-out: Percentage inhibition of ligand binding, Adrenergic α1B (0.03 μM), compound at 0.03 μM, [3H]Prazosin, repeat datapoints each shown): 46% |
| −2% |  |  |  | Cc1ccc2c(c1)c1c(n2CC(O)c2ccc(C#N)nc2)CCN(C)C1 (stereo not shown) [compound 140, 5-[2-(2,8-dimethyl-1,2,3,4-tetrahydro-pyrido[4,3-b]indol-5-yl)-1-hydroxy-ethyl]-pyridine-2-carbonitrile] | Percentage inhibition of ligand binding, Adrenergic α2B (0.03 μM) [1, 4]: 49%; Percentage inhibition of ligand binding, Adrenergic α1B (0.1 μM) [3, 6]: 37% |
| 5% | 76% | 23% |  | Cc1ccc2c(c1)c1c(n2CC(OC(=O)N(C)C)c2ccncc2)CCN(C)C1 (stereo not shown) [compound 141, N,N-dimethyl-carbamic acid 2-(2,8-dimethyl-1,2,3,4-tetrahydro-pyrido[4,3-b]indol-5-yl)-1-pyridin-4-yl-ethyl ester] |  |
|  | 61% | 49% | 6% | Cc1cnc2c(c1)c1c(n2CC(O)c2ccc(C#N)cc2)CCN(C)C1 (stereo not shown) [compound 145] |  |
| 19% |  |  |  | Cc1ccc2c(c1)c1c(n2CC(OC(=O)c2ccncc2)c2ccncc2)CCN(C)C1 (stereo not shown) [compound 147, isonicotinic acid 2-(2,8-dimethyl-1,2,3,4-tetrahydro-pyrido[4,3-b]indol-5-yl)-1-pyridin-4-yl-ethylester] | Percentage inhibition of ligand binding, Adrenergic α2B (0.03 μM) [1, 4]: 91% and 102%; pKi [1]: 8.83; Percentage inhibition of ligand binding, Adrenergic α1B (0.1 μM) [3, 6]: 7% |
|  | 17% | 17% | 6% | Cc1ccc2c(c1)c1c(n2CC(N)c2ccncc2)CN(C)CC1 (stereo not shown) [compound 153, 2-(2,6-dimethyl-3,4-dihydro-1H-pyrido[3,4-b]indol-9(2H)-yl)-1-(pyridin-4-yl)ethanamine] |  |
|  | 6% | 21% | 1% | Cc1cnc2c(c1)c1c(n2CC(N)c2ccncc2)CCN(C)C1 (stereo not shown) [compound 156] |  |
|  | 43% | 57% | 6% | Cc1ccc2c(c1)c1c(n2CC(N)c2ccc(C(N)=O)nc2)CCN(C)C1 (stereo not shown) [compound 157, 5-[1-amino-2-(2,8-dimethyl-1,2,3,4-tetrahydro-pyrido[4,3-b]indol-5-yl)-ethyl]-pyridine-2-carboxylic acid amide] |  |
|  | 43% | 8% | -1% | Cc1cnc2c(c1)c1c(n2CC(N)c2ccncc2)CCNC1 (stereo not shown) [compound 158] |  |
|  | 32% | 23% | 16% | Cc1ccc2c(c1)c1c(n2CC(O)c2ccnc(C(=O)O)c2)CCN2CCCC12 (stereo not shown) [compound 168] |  |
|  | 20% | 2% | 15% | Cc1ccc2c(c1)c1c(n2CC(C)(O)c2ccc(C(=O)O)nc2)CCN(C)C1 (stereo not shown) [compound 169, 5-(1-(1,2,3,4-tetrahydro-2,8-dimethylpyrido[4,3-b]indol-5-yl)-2-hydroxypropan-2-yl)pyridine-2-carboxylic acid] |  |
|  | 8% | 6% | 6% | Cc1ccc2c(c1)c1c(n2CC(C)(O)c2cnccc2C(=O)O)CCN(C)C1 (stereo not shown) [compound 179] |  |
| 64% | 48% | 18% | 58% | CN1CCc2c(c3c(Cl)cccc3n2CCc2ccccc2)C1 [compound 214] | pKi [1]: 7.89; inhibition at 0.1 µM [1, 4]: 80%; pKi [2]: 7.64; inhibition at 0.03 µM ([2]; read-out: Percentage inhibition of ligand binding, Adrenergic α2A (0.03 μM), compound at 0.03 μM, [3H]MK-912, repeat datapoints each shown): 37% |
|  |  | 62% | 74% | CN1CCc2c(c3cc(Cl)ccc3n2CCc2ccc(F)cc2)C1 [compound 217] | inhibition at 0.1 µM [1, 4]: 102% |
|  | 47% | 21% | 69% | CN1CCc2c(c3cc(Cl)ccc3n2CC(O)(c2ccc(F)cc2)C2CC2)C1 (stereo not shown) [compound 223] |  |
|  |  |  |  | Cc1cnc2c(c1)c1c(n2CCc2ccc(F)cc2)CCN2CCCC12 (stereo not shown) [compound 336] | inhibition at 0.03 µM [1, 10]: 104%; inhibition at 0.1 µM [2, 11]: 66%; inhibition at 0.1 µM [3, 12]: 98% |
|  |  |  |  | CCCCCCC(=O)OC(Cn1c2c(c3cc(C)ccc31)CN(C)CC2)c1ccncc1 (stereo not shown) [compound 338, heptanoic acid 2-(2,8-dimethyl-1,2,3,4-tetrahydro-pyrido[4,3-b]indol-5-yl)-1-pyridin-4-yl-ethyl ester] | inhibition at 0.03 µM [1, 10]: 102%; inhibition at 0.1 µM [2, 11]: 60%; inhibition at 0.1 µM [3, 12]: 16% |

| Compound | Percentage inhibition of ligand binding, Adrenergic α2A (0.1 μM) [2, 5] | inhibition at 0.03 µM [1, 7] | inhibition at 0.1 µM [3, 8] | inhibition at 0.1 µM [2, 9] | further results |
| --- | --- | --- | --- | --- | --- |
| Cc1ccc2c(c1)c1c(n2CC(N)c2ccncc2)CCN(C)CC1 (stereo not shown) [compound 154, 2-(3,9-dimethyl-2,3,4,5-tetrahydroazepino[4,5-b]indol-6(1H)-yl)-1-(pyridin-4-yl)ethanamine] | 15% |  |  |  | Percentage inhibition of ligand binding, Adrenergic α2B (0.03 μM) [1, 4]: 58%; Percentage inhibition of ligand binding, Adrenergic α1B (0.1 μM) [3, 6]: 86% |
